BigSolDB 2.1

O=[N+]([O-])c1ccc(S(=O)(=O)[O-])cc1.[Na+]
solubility (mole fraction)
Details | 283.15 K | 288.15 K | 293.15 K | 298.15 K | 303.15 K | 308.15 K | 313.15 K | 318.15 K | 323.15 K
in THF | 0.000109 | 0.000112 | 0.000117 | 0.000122 | 0.000127 | 0.000132 | 0.000138 | 0.000145 | 0.000156
in acetone | 0.012 | 0.014 | 0.0161 | 0.0182 | 0.0206 | 0.0229 | 0.0258 | 0.029 | 0.0323
in cyclohexanone | 0.000906 | 0.000913 | 0.000917 | 0.000927 | 0.000938 | 0.000954 | 0.000967 | 0.000991 | 0.00101
in ethanol | 0.00104 | 0.00118 | 0.00133 | 0.00147 | 0.00164 | 0.0018 | 0.00204 | 0.00232 | 0.0026
in ethyl acetate | 8.84e-05 | 9.96e-05 | 0.000109 | 0.00012 | 0.000131 | 0.000143 | 0.000157 | 0.000175 | 0.000193
in n-butanol | 0.000318 | 0.000405 | 0.000498 | 0.000597 | 0.000699 | 0.000798 | 0.000947 | 0.00111 | 0.00131
